Experimental data as given in patent US9579314B2 (priority 2015, dated 2017).

What was measured:
Human M3 receptor = Human M3 receptor (Homo sapiens, UniProt P20309); conditions: read-out: M3 binding affinity
Human β2 adrenoceptor = Human β2 adrenoceptor (Homo sapiens, UniProt P07550); conditions: read-out: B2 binding affinity
Human β2 adrenoceptor, sequence (P07550 whole entry): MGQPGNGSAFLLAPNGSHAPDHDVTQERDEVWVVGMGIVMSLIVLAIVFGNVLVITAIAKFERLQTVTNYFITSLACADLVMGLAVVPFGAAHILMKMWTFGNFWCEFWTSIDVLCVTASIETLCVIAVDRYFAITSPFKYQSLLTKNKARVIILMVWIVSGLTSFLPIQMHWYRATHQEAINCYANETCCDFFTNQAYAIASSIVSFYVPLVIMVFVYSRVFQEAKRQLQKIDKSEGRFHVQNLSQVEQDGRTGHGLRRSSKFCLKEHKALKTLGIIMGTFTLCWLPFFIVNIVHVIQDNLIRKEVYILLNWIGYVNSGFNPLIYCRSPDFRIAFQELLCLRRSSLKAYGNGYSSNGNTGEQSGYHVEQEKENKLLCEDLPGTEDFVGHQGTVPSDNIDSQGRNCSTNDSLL

Human M3 receptor, sequence (P20309 whole entry): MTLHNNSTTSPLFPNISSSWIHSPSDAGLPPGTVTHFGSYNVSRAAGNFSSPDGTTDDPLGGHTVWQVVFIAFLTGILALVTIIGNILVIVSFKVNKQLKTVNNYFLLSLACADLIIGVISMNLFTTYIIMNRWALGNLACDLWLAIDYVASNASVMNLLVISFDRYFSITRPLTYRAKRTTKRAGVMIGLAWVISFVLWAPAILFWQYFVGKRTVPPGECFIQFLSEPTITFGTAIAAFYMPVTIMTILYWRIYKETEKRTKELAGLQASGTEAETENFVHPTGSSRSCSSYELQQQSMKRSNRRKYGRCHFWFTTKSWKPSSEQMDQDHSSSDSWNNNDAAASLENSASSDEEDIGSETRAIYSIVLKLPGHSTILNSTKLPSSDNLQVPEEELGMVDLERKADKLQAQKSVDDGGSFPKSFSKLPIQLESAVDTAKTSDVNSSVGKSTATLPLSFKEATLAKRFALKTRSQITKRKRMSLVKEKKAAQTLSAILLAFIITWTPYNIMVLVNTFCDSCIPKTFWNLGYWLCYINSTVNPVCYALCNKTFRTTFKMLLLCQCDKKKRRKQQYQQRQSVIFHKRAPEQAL

| Structure (SMILES) | IC50 (Human M3 receptor) [nM] | IC50 (Human β2 adrenoceptor) [nM] |
| --- | --- | --- |
| O=C(COc1cccc([C@](O)(C(=O)OCC2CCN(Cc3ccccc3)CC2)c2ccccc2)c1)N1CC2(CCN(C(=O)c3ccc(CCNC[C@H](O)c4ccc(O)c5[nH]c(=O)ccc45)cc3)CC2)C1 [Compound 94, (1-benzylpiperidin-4-yl)methyl (S)-2-hydroxy-2-(3-(2-(7-(4-(2-(((R)-2-hydroxy-2-(8-hydroxy-2-oxo-1,2-dihydroquinolin-5-yl)ethyl)amino)ethyl)benzoyl)-2,7-diazaspiro[3.5]nonan-2-yl)-2-oxoethoxy)phenyl)-2-phenylacetate] | < 0.3 | < 0.3 |
| O=C(COc1cccc([C@](O)(C(=O)OCC2CCN(Cc3ccccc3)CC2)c2ccccc2)c1)N1CCC2(CC1)CCN(C(=O)c1ccc(CCNC[C@H](O)c3ccc(O)c4[nH]c(=O)ccc34)cc1)CC2 [Compound 95, (1-benzylpiperidin-4-yl)methyl (S)-2-hydroxy-2-(3-(2-(9-(4-(2-(((R)-2-hydroxy-2-(8-hydroxy-2-oxo-1,2-dihydroquinolin-5-yl)ethyl)amino)ethyl)benzoyl)-3,9-diazaspiro[5.5]undecan-3-yl)-2-oxoethoxy)phenyl)-2-phenylacetate] | < 0.3 | < 0.3 |
| O=C(COc1cccc([C@](O)(C(=O)OCC2CCN(Cc3ccccc3)CC2)c2ccccc2)c1)N1CCC2(CC1)CN(C(=O)c1ccc(CCNC[C@H](O)c3ccc(O)c4[nH]c(=O)ccc34)cc1)C2 [Compound 96, (1-benzylpiperidin-4-yl)methyl (S)-2-hydroxy-2-(3-(2-(2-(4-(2-(((R)-2-hydroxy-2-(8-hydroxy-2-oxo-1,2-dihydroquinolin-5-yl)ethyl)amino)ethyl)benzoyl)-2,7-diazaspiro[3.5]nonan-7-yl)-2-oxoethoxy)phenyl)-2-phenylacetate] | < 0.3 | < 0.3 |
| O=C(COc1cccc([C@](O)(C(=O)OCC2CCN(Cc3ccccc3)CC2)c2ccccc2)c1)NCC1CCN(C(=O)c2ccc(CCNC[C@H](O)c3ccc(O)c4[nH]c(=O)ccc34)cc2)CC1 [Compound 97, (1-benzylpiperidin-4-yl)methyl (S)-2-hydroxy-2-(3-(2-(((1-(4-(2-(((R)-2-hydroxy-2-(8-hydroxy-2-oxo-1,2-dihydroquinolin-5-yl)ethyl)amino)ethyl)benzoyl)piperidin-4-yl)methyl)amino)-2-oxoethoxy)phenyl)-2-phenylacetate] | 0.3 to 3 | < 0.3 |
| O=C(COc1cccc([C@](O)(C(=O)OCC2CCN(Cc3ccccc3)CC2)c2ccccc2)c1)N1CC2(CCCN(C(=O)c3ccc(CCNC[C@H](O)c4ccc(O)c5[nH]c(=O)ccc45)cc3)C2)C1 [Compound 98, (1-benzylpiperidin-4-yl)methyl (S)-2-hydroxy-2-(3-(2-(6-(4-(2-(((R)-2-hydroxy-2-(8-hydroxy-2-oxo-1,2-dihydroquinolin-5-yl)ethyl)amino)ethyl)benzoyl)-2,6-diazaspiro[3.5]nonan-2-yl)-2-oxoethoxy)phenyl)-2-phenylacetate] | 0.3 to 3 | 0.3 to 3 |
| O=C(COc1cccc([C@](O)(C(=O)OCC2CCN(Cc3ccccc3)CC2)c2ccccc2)c1)N1CCCC2(CCN(C(=O)c3ccc(CCNC[C@H](O)c4ccc(O)c5[nH]c(=O)ccc45)cc3)CC2)C1 [Compound 99, (1-benzylpiperidin-4-yl)methyl (S)-2-hydroxy-2-(3-(2-(9-(4-(2-(((R)-2-hydroxy-2-(8-hydroxy-2-oxo-1,2-dihydroquinolin-5-yl)ethyl)amino)ethyl)benzoyl)-2,9-diazaspiro[5.5]undecan-2-yl)-2-oxoethoxy)phenyl)-2-phenylacetate] | 0.3 to 3 | 0.3 to 3 |
| O=C(COc1cccc([C@](O)(C(=O)OCC2CCN(Cc3ccccc3)CC2)c2ccccc2)c1)N1CCOC2(CCN(C(=O)c3ccc(CCNC[C@H](O)c4ccc(O)c5[nH]c(=O)ccc45)cc3)CC2)C1 [Compound 100, (1-benzylpiperidin-4-yl)methyl (S)-2-hydroxy-2-(3-(2-(9-(4-(2-(((R)-2-hydroxy-2-(8-hydroxy-2-oxo-1,2-dihydroquinolin-5-yl)ethyl)amino)ethyl)benzoyl)-1-oxa-4,9-diazaspiro[5.5]undecan-4-yl)-2-oxoethoxy)phenyl)-2-phenylacetate] | < 0.3 | 0.3 to 3 |
| O=C(COc1cccc([C@](O)(C(=O)OCC2CCN(Cc3ccccc3)CC2)c2ccccc2)c1)NC1CN(C(=O)c2ccc(CCNC[C@H](O)c3ccc(O)c4[nH]c(=O)ccc34)cc2)C1 [Compound 101, (1-benzylpiperidin-4-yl)methyl (S)-2-hydroxy-2-(3-(2-((1-(4-(2-(((R)-2-hydroxy-2-(8-hydroxy-2-oxo-1,2-dihydroquinolin-5-yl)ethyl)amino)ethyl)benzoyl)azetidin-3-yl)amino)-2-oxoethoxy)phenyl)-2-phenylacetate] | < 0.3 | < 0.3 |
| O=C(NC1CN(C(=O)COc2cccc([C@](O)(C(=O)OCC3CCN(Cc4ccccc4)CC3)c3ccccc3)c2)C1)c1ccc(CCNC[C@H](O)c2ccc(O)c3[nH]c(=O)ccc23)cc1 [Compound 102, (1-benzylpiperidin-4-yl)methyl (S)-2-hydroxy-2-(3-(2-(3-(4-(2-(((R)-2-hydroxy-2-(8-hydroxy-2-oxo-1,2-dihydroquinolin-5-yl)ethyl)amino)ethyl)benzamido)azetidin-1-yl)-2-oxoethoxy)phenyl)-2-phenylacetate] | < 0.3 | < 0.3 |
| O=C(COc1cccc([C@](O)(C(=O)OCC2CCN(Cc3ccccc3)CC2)c2ccccc2)c1)NCCNC(=O)c1ccc(CCNC[C@H](O)c2ccc(O)c3[nH]c(=O)ccc23)cc1 [Compound 103, (1-benzylpiperidin-4-yl)methyl (S)-2-hydroxy-2-(3-(2-((2-(4-(2-(((R)-2-hydroxy-2-(8-hydroxy-2-oxo-1,2-dihydroquinolin-5-yl)ethyl)amino)ethyl)benzamido)ethyl)amino)-2-oxoethoxy)phenyl)-2-phenylacetate] | < 0.3 | 0.3 to 3 |
| O=C(COc1cccc([C@](O)(C(=O)OCC2CCN(Cc3ccccc3)CC2)c2ccccc2)c1)N[C@@H]1CCN(C(=O)c2ccc(CCNC[C@H](O)c3ccc(O)c4[nH]c(=O)ccc34)cc2)C1 [Compound 104, (1-benzylpiperidin-4-yl)methyl (S)-2-hydroxy-2-(3-(2-(((R)-1-(4-(2-(((R)-2-hydroxy-2-(8-hydroxy-2-oxo-1,2-dihydroquinolin-5-yl)ethyl)amino)ethyl)benzoyl)pyrrolidin-3-yl)amino)-2-oxoethoxy)phenyl)-2-phenylacetate] | < 0.3 | 0.3 to 3 |
| O=C(COc1cccc([C@](O)(C(=O)OCC2CCN(Cc3ccccc3)CC2)c2ccccc2)c1)N[C@@H]1CCCN(C(=O)c2ccc(CCNC[C@H](O)c3ccc(O)c4[nH]c(=O)ccc34)cc2)C1 [Compound 105, (1-benzylpiperidin-4-yl)methyl (S)-2-hydroxy-2-(3-(2-(((R)-1-(4-(2-(((R)-2-hydroxy-2-(8-hydroxy-2-oxo-1,2-dihydroquinolin-5-yl)ethyl)amino)ethyl)benzoyl)piperidin-3-yl)amino)-2-oxoethoxy)phenyl)-2-phenylacetate] | 0.3 to 3 | 0.3 to 3 |
| O=C(COc1cccc([C@](O)(C(=O)OCC2CCN(Cc3ccccc3)CC2)c2ccccc2)c1)N[C@H]1CCCN(C(=O)c2ccc(CCNC[C@H](O)c3ccc(O)c4[nH]c(=O)ccc34)cc2)C1 [Compound 106, (1-benzylpiperidin-4-yl)methyl (S)-2-hydroxy-2-(3-(2-(((S)-1-(4-(2-(((R)-2-hydroxy-2-(8-hydroxy-2-oxo-1,2-dihydroquinolin-5-yl)ethyl)amino)ethyl)benzoyl)piperidin-3-yl)amino)-2-oxoethoxy)phenyl)-2-phenylacetate] | 0.3 to 3 | 0.3 to 3 |
| O=C(COc1cccc([C@](O)(C(=O)OCC2CCN(Cc3ccccc3)CC2)c2ccccc2)c1)N[C@H]1CCN(C(=O)c2ccc(CCNC[C@H](O)c3ccc(O)c4[nH]c(=O)ccc34)cc2)C1 [Compound 107, (1-benzylpiperidin-4-yl)methyl (S)-2-hydroxy-2-(3-(2-(((S)-1-(4-(2-(((R)-2-hydroxy-2-(8-hydroxy-2-oxo-1,2-dihydroquinolin-5-yl)ethyl)amino)ethyl)benzoyl)pyrrolidin-3-yl)amino)-2-oxoethoxy)phenyl)-2-phenylacetate] | 0.3 to 3 | < 0.3 |
| O=C(N[C@H]1CCCN(C(=O)COc2cccc([C@](O)(C(=O)OCC3CCN(Cc4ccccc4)CC3)c3ccccc3)c2)C1)c1ccc(CCNC[C@H](O)c2ccc(O)c3[nH]c(=O)ccc23)cc1 [Compound 108, (1-benzylpiperidin-4-yl)methyl (S)-2-hydroxy-2-(3-(2-((S)-3-(4-(2-(((R)-2-hydroxy-2-(8-hydroxy-2-oxo-1,2-dihydroquinolin-5-yl)ethyl)amino)ethyl)benzamido)piperidin-1-yl)-2-oxoethoxy)phenyl)-2-phenylacetate] | 0.3 to 3 | 0.3 to 3 |
| O=C(N[C@H]1CCN(C(=O)COc2cccc([C@](O)(C(=O)OCC3CCN(Cc4ccccc4)CC3)c3ccccc3)c2)C1)c1ccc(CCNC[C@H](O)c2ccc(O)c3[nH]c(=O)ccc23)cc1 [Compound 109, (1-benzylpiperidin-4-yl)methyl (S)-2-hydroxy-2-(3-(2-((S)-3-(4-(2-(((R)-2-hydroxy-2-(8-hydroxy-2-oxo-1,2-dihydroquinolin-5-yl)ethyl)amino)ethyl)benzamido)pyrrolidin-1-yl)-2-oxoethoxy)phenyl)-2-phenylacetate] | 0.3 to 3 | 0.3 to 3 |
| O=C(N[C@@H]1CCN(C(=O)COc2cccc([C@](O)(C(=O)OCC3CCN(Cc4ccccc4)CC3)c3ccccc3)c2)C1)c1ccc(CCNC[C@H](O)c2ccc(O)c3[nH]c(=O)ccc23)cc1 [Compound 110, (1-benzylpiperidin-4-yl)methyl (S)-2-hydroxy-2-(3-(2-((R)-3-(4-(2-(((R)-2-hydroxy-2-(8-hydroxy-2-oxo-1,2-dihydroquinolin-5-yl)ethyl)amino)ethyl)benzamido)pyrrolidin-1-yl)-2-oxoethoxy)phenyl)-2-phenylacetate] | 0.3 to 3 | 0.3 to 3 |
